Source: patent US20130324508A1, “BIOMARKER FOR PROSTATE CANCER AND METHOD OF USING THE SAME” (UNIVERSITY OF TENNESSEE RESEARCH FOUNDATION, priority 2012, published 2013)

Columns and labels:
22Rv1 [1] = assay: PSA and Runx 2II gene expression in 22Rv1 cells (real time RT-PCR); type: cell-based, human; settings: for PSA gene expression / Runx 2II gene expression: 22Rv1, 8 hours stimulation, OC 80 ng/ml, arginine 30 mM, R1881 100 nM; for PSA gene expression: FIG. 4A; for Runx 2II gene expression: FIG. 4B
Description: (§1) Human tissue cDNAs were obtained from Clontech Laboratories, Inc. Total RNA from human prostate cancer cells was isolated with RNeasy Mini Kit (Qiagen Inc., Valencia, Calif.). RT-PCR was done using two-step RNA PCR (Perkin-Elmer). In separate reactions, 2.0 μg of DNase-treated total RNA was reverse-transcribed into cDNA with the respective reverse primers specified below and Moloney murine leukemia virus reverse transcriptase (Gibco Life Technologies, Inc.). Reactions were carried out at 42° C. for 60 min followed by 94° C. for 5 min and 5° C. for 5 min. The products of first-strand cDNA synthesis were directly amplified by PCR using AmpliTaq DNA polymerase (Perkin-Elmer). The primers for human GPRC6A are as follows: hGPRC6A.F203: […] (SEQ ID NO: 1) and hGPRC6A.R630: […] (SEQ ID NO: 2). For housekeeping gene control G3PDH gene, G3PDH.F143: […] (SEQ ID NO: 3) and G3PDH.R1050: […] (SEQ ID NO: 4). For quantitative real time RT-PCR assessment of PSA and Runx 2II genes expression, total RNA was isolated and reverse transcribed from 22Rv1 cells that stimulated with or without OC (80 ng/ml), arginine (30 mM) and R1881 (100 nM) as previously described using specific primer sets. The primers sequences were PSA. For: […] (SEQ ID NO: 5) and PSA.Rev: […] (SEQ ID NO: 6); Runx 2. For: […] (SEQ ID NO: 7) and Runx 2. Rev: […] (SEQ ID NO: 8), and the threshold cycle (Ct) of tested-gene product from the indicated genotype was normalized to the Ct for cyclophilin A as previously described (18).
(§2) After 8 hours stimulation, OC, arginine and R1881 stimulated PSA and Runx 2II gene expression in human prostate cancer 22Rv1 (FIG. 4A and FIG. 4B) and PC-3 cells (FIG. 4C and FIG. 4D). * indicates a significant difference from control and stimulation at p<0.05 respectively.
To investigate whether the observed ligand-induced PSA and Runx2 gene expression in the prostate cancer cells is due to simulation of GPRC6A, the response to GPRC6A ligands was examined after knock-down of GPRC6A. ERK activity was assessed in 22Rv1 stably transfected with GPRC6A siRNA-514 and compared this response to transfected cells with a random negative control siRNA plasmid, which were used as controls.

PC-3 [2] = assay: PSA and Runx 2II gene expression in PC-3 cells (real time RT-PCR); type: cell-based, human; settings: 8 hours stimulation; for PSA gene expression: FIG. 4C; for Runx 2II gene expression: FIG. 4D
Description: as §1, §2

GPRC6A [3] = assay: ERK activation in HEK-293 cells transfected with GPRC6A (Western blot); type: cell-based; settings: HEK-293 overexpressing GPRC6A; 5 min; calcium 1-20 mM, zinc 0.2-0.8 mM, OC 5-60 ng/ml, arginine 5-30 mM, testosterone-BSA 5-100 nM; FIG. 2A
Description: (§3) Briefly, human prostate cancer cells and the cells transfected with GPRC6A will be made quiescent by overnight incubation in serum-free DMEM/F12 containing 0.1% BSA and stimulated with various ligands at different doses. ERK activation will be assessed 5 to 30 minutes after treatment by immunoblotting using anti-phospho-ERK1/2 MAP kinase antibody (Cell Signaling Technology) corrected for the amount of ERK using an anti-ERK1/2 MAP Kinase antibody (Cell Signaling Technology) to measure ERK levels.
(§4) Referring to FIG. 2. […] Here, calcium (1-20 mM), zinc (0.2-0.8 mM), OC (5-60 ng/ml), arginine (5-30 mM), and testosterone-BSA (5-100 nM) are confirmed to be functional ligands for GPRC6A (16-17, 19). […] Calcium (10 mM), zinc (0.2 mM), OC (20 ng/ml), arginine (20 mM), and testosterone-BSA (60 nM) increased phospho-ERK in both of these cells. The HEK cells transfected with GPRC6A or without the plasmid cDNA of GPRC6A or 22Rv1 or PC-3 were incubated in Dulbecco's modified Eagle's medium/F-12 containing 0.1% bovine serum albumin quiescence media and exposed to the extracellular calcium, OC, arginine, or testosterone-BSA at indicated concentrations for 5 min, and ERK activation was determined as described under Materials and Methods. Representative blots are shown, and the results were verified in at least three independent experiments.

[4] = tested on: non-transfected HEK-293 cells; assay: ERK activation in non-transfected HEK-293 cells (Western blot); type: cell-based; settings: same ligand concentrations, 5 min
Description: as §3, §4

22Rv1 [5] = assay: ERK activation in 22Rv1 prostate cancer cells (Western blot); type: cell-based, human; settings: for phospho-ERK: 22Rv1 (androgen receptor positive), calcium 10 mM, zinc 0.2 mM, OC 20 ng/ml, arginine 20 mM, testosterone-BSA 60 nM, 5 min, FIG. 2B; for OC and testosterone stimulated phospho-ERK activity: FIG. 5B
Description: as §3, §4
(§5) To confirm the importance of GPRC6A signaling in prostate cancer cell line, the response to GPRC6A ligands was accessed after knock-down of GPRC6A using siRNA. For these studies, ERK activity was assessed in 22Rv1 and PC-3 cells stably transfected with GPRC6A siRNA-202 and siRNA-514. These responses were compared control groups consisting of mock-transfected cells and transfected cells with a random negative control siRNA plasmid.

PC-3 [6] = assay: ERK activation in PC-3 prostate cancer cells (Western blot); type: cell-based, human; settings: for phospho-ERK: PC-3 (androgen receptor negative), calcium 10 mM, zinc 0.2 mM, OC 20 ng/ml, arginine 20 mM, testosterone-BSA 60 nM, 5 min, FIG. 2B; for OC and testosterone stimulated phospho-ERK activity: PC-3 transfected with siRNA, FIG. 5B
Description: as §3, §4, §5

GPRC6A [7] = assay: siRNA suppression of GPRC6A gene expression (RT-PCR); type: cell-based, human; settings: compared to controls, FIG. 5A
From the text: For GPRC6A knockdown experiments, two short interfering RNAs (siRNAs) (19 nucleotides each) have been designed from the hGPRC6A sequence (NM_148963) (SEQ ID NO: 9). These are GPRC6A siRNA-202: CCAGGAGTGTGTTGGCTTT (SEQ ID NO: 10) and siRNA-514: GCCACAGGTGGGTTATGAA (SEQ ID NO: 11). Two siRNA hairpins were synthesized and cloned into a pSilencer™ 4.1-CMV neo vector (Ambion). A circular pSilencer™ 4.1-CMV neo vector that expresses a hairpin siRNA with limited homology to any known sequence was used as a negative control. The constructs of siRNA duplexes have been stably transfected into human prostate cancer cells using Lipofectamine™ (Invitrogen) and were selected by G418 (Invitrogen). Successful knock down of GPRC6A will be confirmed by assessing RT-PCR analysis of GPRC6A expression.
as §5

[8] = 22Rv1 stably transfected with siRNA
[9] = PC-3 stably transfected with siRNA

| Compound | PSA gene expression (22Rv1 [1]) | Runx 2II gene expression (22Rv1 [1]) | PSA gene expression (PC-3 [2]) | Runx 2II gene expression (PC-3 [2]) | stimulation of ERK activity (GPRC6A [3]) | ERK response [4] | phospho-ERK (22Rv1 [5]) | phospho-ERK (PC-3 [6]) | OC and testosterone stimulated phospho-ERK activity (22Rv1 [5]; 22Rv1 transfected with siRNA) | ERK phosphorylation by extracellular calcium, testosterone, arginine and OC (22Rv1 [5]; 22Rv1 transfected with siRNA, FIG. 5C) | OC and testosterone stimulated phospho-ERK activity (PC-3 [6]) | mRNA expression of GPRC6A (GPRC6A [7]; [8]) | mRNA expression of GPRC6A (GPRC6A [7]; [9]) | ligand-induced mRNA expression of PSA (22Rv1 [1]; 22Rv1 stably transfected with siRNA versus negative control siRNA, FIG. 6A) | ligand-induced mRNA expression of Runx2 (22Rv1 [1]; 22Rv1 stably transfected with siRNA versus negative control siRNA, FIG. 6B) |
| --- | --- | --- | --- | --- | --- | --- | --- | --- | --- | --- | --- | --- | --- | --- | --- |
| C[C@]1(O)CC[C@H]2[C@@H]3CCC4=CC(=O)CCC4=C3C=C[C@@]21C [R1881, Methytrienolone] | stimulated | stimulated | stimulated | stimulated |  |  |  |  |  |  |  |  |  |  |  |
| N=C(N)NCCC[C@H](N)C(=O)O [arginine, L-Arginine] | stimulated | stimulated | stimulated | stimulated | dose-dependent stimulation | failed to respond | increased | increased |  |  |  |  |  |  |  |
| [Cl-].[Cl-].[Zn+2] [zinc, zinc chloride] |  |  |  |  | dose-dependent stimulation | failed to respond | increased | increased |  |  |  |  |  |  |  |
| GPRC6A siRNA-202: siRNA, 19 nucleotides, CCAGGAGTGTGTTGGCTTT (SEQ ID NO: 10), hairpin cloned into pSilencer 4.1-CMV neo vector |  |  |  |  |  |  |  |  | significantly decreased | failed to stimulate | significantly decreased | Decreased | Decreased |  |  |
| siRNA-514: siRNA, 19 nucleotides, GCCACAGGTGGGTTATGAA (SEQ ID NO: 11), hairpin cloned into pSilencer 4.1-CMV neo vector |  |  |  |  |  |  |  |  | significantly decreased |  | significantly decreased | Decreased | Decreased | Significantly decreased | Significantly decreased |
